Test results taken from ChEMBL document CHEMBL2406948, “Skeletal rearrangement of seven-membered iminosugars: synthesis of (-)-adenophorine, (-)-1-epi-adenophorine and derivatives and evaluation as glycosidase inhibitors” (Bioorg Med Chem, 2013).

Columns and labels:
[1] = biological target: T1, Tissue alpha-L-fucosidase (Bos taurus, UniProt Q2KIM0); assay: Inhibition of bovine kidney alpha-L-fucosidase
T1 sequence (Q2KIM0 whole entry): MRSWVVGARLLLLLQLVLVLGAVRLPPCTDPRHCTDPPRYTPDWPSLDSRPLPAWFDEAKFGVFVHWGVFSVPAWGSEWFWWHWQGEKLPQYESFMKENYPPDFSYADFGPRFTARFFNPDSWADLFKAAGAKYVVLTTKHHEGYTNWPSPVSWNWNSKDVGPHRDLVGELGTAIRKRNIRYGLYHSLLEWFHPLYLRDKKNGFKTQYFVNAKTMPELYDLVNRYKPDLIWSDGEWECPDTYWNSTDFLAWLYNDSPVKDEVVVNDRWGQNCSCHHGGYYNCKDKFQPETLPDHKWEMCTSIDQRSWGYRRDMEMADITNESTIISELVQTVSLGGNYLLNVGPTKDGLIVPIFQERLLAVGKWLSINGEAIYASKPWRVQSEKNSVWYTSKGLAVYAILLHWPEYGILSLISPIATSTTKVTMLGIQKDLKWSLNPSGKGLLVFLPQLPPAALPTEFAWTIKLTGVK

[2] = biological target: Alpha-galactosidase (Coffea arabica) (UniProt Q42656); assay: Inhibition of coffee bean alpha-galactosidase at 1000 uM
[3] = test system: Aspergillus niger; assay: Inhibition of Aspergillus niger beta-glucosidase at 1000 uM
[4] = biological target: T2, Glucosylceramidase (Bos taurus) (UniProt Q2KHZ8); assay: Inhibition of bovine liver beta-glucosidase at 1000 uM
T2 sequence (whole entry): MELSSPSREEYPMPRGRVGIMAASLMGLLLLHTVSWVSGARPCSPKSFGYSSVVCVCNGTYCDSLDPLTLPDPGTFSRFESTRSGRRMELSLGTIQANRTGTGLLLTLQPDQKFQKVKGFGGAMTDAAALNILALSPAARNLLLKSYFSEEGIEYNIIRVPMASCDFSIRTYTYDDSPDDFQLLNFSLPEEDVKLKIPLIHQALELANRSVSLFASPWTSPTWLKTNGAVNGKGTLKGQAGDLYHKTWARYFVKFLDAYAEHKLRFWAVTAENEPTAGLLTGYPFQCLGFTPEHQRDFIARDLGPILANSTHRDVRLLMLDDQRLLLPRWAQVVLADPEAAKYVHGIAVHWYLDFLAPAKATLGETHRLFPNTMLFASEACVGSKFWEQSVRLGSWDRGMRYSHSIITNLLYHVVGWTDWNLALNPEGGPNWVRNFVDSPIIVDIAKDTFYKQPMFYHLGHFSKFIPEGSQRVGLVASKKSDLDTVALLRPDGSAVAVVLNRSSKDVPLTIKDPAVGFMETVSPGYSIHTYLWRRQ

[5] = test system: Prunus dulcis; assay: Inhibition of almond beta-glucosidase at 1000 uM
[6] = biological target: Oligo-1,6-glucosidase IMA1 (Saccharomyces cerevisiae S288c) (UniProt P53051); assay: Inhibition of yeast alpha-glucosidase at 1000 uM
[7] = species on record: Rattus norvegicus; assay: Inhibition of rat intestinal maltase alpha-glucosidase at 1000 uM
[8] = Inhibition of rice alpha-glucosidase; parameters: species or system Oryza sativa
[9] = test system: Aspergillus niger; assay: Inhibition of Aspergillus niger amyloglucosidase at 1000 uM
[10] = biological target: T3, Uncharacterized protein (Sus scrofa) (UniProt I3LIR5); assay: Inhibition of pig kidney alpha, alpha trehalase at 1000 uM
T3 sequence (whole entry): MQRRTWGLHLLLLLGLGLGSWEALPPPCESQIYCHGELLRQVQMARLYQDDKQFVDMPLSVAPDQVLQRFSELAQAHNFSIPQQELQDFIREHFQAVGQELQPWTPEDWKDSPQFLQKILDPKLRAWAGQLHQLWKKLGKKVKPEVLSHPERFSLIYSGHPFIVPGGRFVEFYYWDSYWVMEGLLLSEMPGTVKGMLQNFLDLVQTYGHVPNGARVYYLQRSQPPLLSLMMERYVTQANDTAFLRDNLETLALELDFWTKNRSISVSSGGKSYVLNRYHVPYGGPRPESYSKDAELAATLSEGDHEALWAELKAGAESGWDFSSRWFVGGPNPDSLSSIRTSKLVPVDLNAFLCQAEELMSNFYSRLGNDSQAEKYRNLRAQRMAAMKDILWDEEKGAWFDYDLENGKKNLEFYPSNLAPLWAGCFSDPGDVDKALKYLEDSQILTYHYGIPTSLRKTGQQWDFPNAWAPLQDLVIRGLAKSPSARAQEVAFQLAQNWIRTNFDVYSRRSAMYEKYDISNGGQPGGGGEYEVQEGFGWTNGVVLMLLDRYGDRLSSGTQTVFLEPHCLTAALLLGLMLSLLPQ

[11] = biological target: T4, Tissue alpha-L-fucosidase (Bos taurus) (UniProt Q2KIM0); assay: Inhibition of bovine kidney alpha-L-fucosidase at 1000 uM
T4 sequence (whole entry): T1 sequence (Q2KIM0 whole entry)

[12] = test system: Penicillium decumbens; assay: Inhibition of Penicillium decumbens alpha-L-rhamnosidase at 1000 uM
[13] = test system: Helix pomatia; assay: Inhibition of snail beta-mannosidase at 1000 uM
[14] = test system: Canavalia ensiformis; assay: Inhibition of jack beans alpha-mannosidase at 1000 uM
[15] = biological target: T5, Beta-galactosidase (Bos taurus, UniProt Q58D55); assay: Inhibition of bovine liver beta-galactosidase
T5 sequence (Q58D55 whole entry): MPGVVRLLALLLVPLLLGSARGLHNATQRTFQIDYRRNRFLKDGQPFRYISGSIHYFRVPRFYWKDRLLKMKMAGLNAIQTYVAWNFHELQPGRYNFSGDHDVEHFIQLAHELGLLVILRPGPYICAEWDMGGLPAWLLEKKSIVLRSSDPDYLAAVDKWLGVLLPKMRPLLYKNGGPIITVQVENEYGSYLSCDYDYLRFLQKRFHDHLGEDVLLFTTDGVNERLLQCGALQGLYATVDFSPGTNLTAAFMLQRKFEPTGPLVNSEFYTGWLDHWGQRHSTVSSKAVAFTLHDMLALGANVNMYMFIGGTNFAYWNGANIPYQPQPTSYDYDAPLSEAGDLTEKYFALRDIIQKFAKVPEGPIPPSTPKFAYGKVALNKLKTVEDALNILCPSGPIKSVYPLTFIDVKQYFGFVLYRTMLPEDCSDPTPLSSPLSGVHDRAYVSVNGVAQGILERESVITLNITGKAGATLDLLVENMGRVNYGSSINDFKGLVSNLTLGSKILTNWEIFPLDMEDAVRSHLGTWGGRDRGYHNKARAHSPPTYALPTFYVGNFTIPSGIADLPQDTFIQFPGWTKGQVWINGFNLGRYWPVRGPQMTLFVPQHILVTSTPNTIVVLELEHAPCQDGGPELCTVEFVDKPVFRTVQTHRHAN

Alpha-galactosidase (Coffea arabica), sequence (Q42656 16-378 limits assumed): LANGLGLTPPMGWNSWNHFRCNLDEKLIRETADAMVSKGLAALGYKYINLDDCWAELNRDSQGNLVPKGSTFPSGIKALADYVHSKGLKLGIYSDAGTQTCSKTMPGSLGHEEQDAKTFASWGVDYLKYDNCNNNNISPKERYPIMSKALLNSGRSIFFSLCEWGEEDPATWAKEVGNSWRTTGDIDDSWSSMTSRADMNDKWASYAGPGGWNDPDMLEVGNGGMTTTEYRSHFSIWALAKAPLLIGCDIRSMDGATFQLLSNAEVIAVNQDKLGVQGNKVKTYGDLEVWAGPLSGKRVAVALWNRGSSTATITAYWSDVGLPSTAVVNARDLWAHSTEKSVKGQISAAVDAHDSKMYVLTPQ
Oligo-1,6-glucosidase IMA1 (Saccharomyces cerevisiae S288c), sequence (P53051 whole entry): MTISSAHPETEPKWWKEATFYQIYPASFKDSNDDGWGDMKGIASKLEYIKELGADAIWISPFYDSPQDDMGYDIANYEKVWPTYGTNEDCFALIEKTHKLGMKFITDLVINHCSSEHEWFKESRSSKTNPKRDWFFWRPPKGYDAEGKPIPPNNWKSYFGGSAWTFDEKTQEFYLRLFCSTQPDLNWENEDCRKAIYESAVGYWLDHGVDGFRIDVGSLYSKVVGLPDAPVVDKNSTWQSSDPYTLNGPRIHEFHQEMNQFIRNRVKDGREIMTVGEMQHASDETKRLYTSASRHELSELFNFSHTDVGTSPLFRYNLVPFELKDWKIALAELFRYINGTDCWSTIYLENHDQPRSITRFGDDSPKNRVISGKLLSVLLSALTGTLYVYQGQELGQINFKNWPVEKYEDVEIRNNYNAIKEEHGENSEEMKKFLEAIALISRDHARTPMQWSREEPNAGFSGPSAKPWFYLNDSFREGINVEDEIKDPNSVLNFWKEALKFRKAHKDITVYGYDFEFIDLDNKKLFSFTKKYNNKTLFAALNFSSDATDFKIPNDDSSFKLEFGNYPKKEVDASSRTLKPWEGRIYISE

Ki [1] [µM] | inhibition [2] [%] | inhibition [3] [%] | inhibition [4] [%] | inhibition [5] [%] | inhibition [6] [%] | inhibition [7] [%] | IC50 [8] [µM] | inhibition [9] [%] | inhibition [10] [%] | inhibition [11] [%] | inhibition [12] [%] | inhibition [13] [%] | inhibition [14] [%] | IC50 [15] [µM] | SMILES
4.6 |  |  |  |  |  |  |  |  |  |  |  |  |  |  | O[C@H]1[C@H](O)[C@@H](O)CNC[C@H]1O
 | 46 | 9.1 | 6 | 0 | 0 | 0 | 839 | 0 | 0 | 0 | 14.8 | 3.6 | 1.6 | 541 | CCC[C@@H]1NC[C@@H](O)[C@@H](O)[C@H](O)[C@H]1O
